The results in this text go back to ChEMBL document CHEMBL1154428, “Cloning, nucleotide sequencing, and analysis of the AcrAB-TolC efflux pump of Enterobacter cloacae and determination of its involvement in antibiotic resistance in a clinical isolate” (2007).

The structures appear in SMILES notation. Converted amounts (≈) assume the structure as drawn. Bounds are passed on as bounds.

Assay [1] relates to Enterobacter cloacae. Description: Antibacterial activity against drug-resistant AcrAB-TolC efflux pump deficient Enterobacter cloacae EcdeltaacrA isolate expressing pAP3 plasmid containing Enterobacter aerogenes acrR gene by Etest. In kind it is functional.
Assay [2] has as its system Enterobacter cloacae. Description: Antibacterial activity against drug-resistant AcrAB-TolC efflux pump deficient Enterobacter cloacae EcdeltaacrA isolate by Etest. Type of assay: functional.
For assay [3], the system named is Enterobacter cloacae. Kind of assay: Antibacterial activity against drug-resistant Enterobacter cloacae EcDC64 isolate expressing AcrAB-TolC efflux pump by Etest. In kind it is functional.
The test system of assay [4] is Enterobacter cloacae. Description: Antibacterial activity against drug-resistant AcrAB-TolC efflux pump deficient Enterobacter cloacae EcdeltaacrA isolate in presence of 20 ug/ml efflux pump inhibitor Phe-Arg-beta-naphthylamide by Etest. Type of assay: functional.
The test system of assay [5] is Enterobacter cloacae. Kind of assay: Antibacterial activity against drug-resistant AcrAB-TolC efflux pump deficient Enterobacter cloacae EcdeltaacrA isolate expressing pACYC184 plasmid by Etest. In kind it is functional.
Assay [6] relates to Enterobacter cloacae. Kind of assay: Antibacterial activity against drug-resistant Enterobacter cloacae EcDC64 isolate expressing AcrAB-TolC efflux pump in presence of 20 ug/ml efflux pump inhibitor Phe-Arg-beta-naphthylamide by Etest.
The test system of assay [7] is Enterobacter cloacae. Kind of assay: Antibacterial activity against drug-resistant AcrAB-TolC efflux pump deficient Enterobacter cloacae EcdeltaacrA isolate expressing pAP2 plasmid containing Enterobacter cloacae acrA gene by Etest. In kind it is functional.
Assay [8] concerns Enterobacter cloacae. Description: Antibacterial activity against drug-resistant AcrAB-TolC efflux pump deficient Enterobacter cloacae EcdeltaacrA isolate expressing pBGS18 plasmid by Etest. Type of assay: functional.

As for `CCN1CCN(C(=O)N[C@@H](C(=O)N[C@@H]2C(=O)N3[C@@H]2SC(C)(C)[C@@H]3C(=O)O)c2ccccc2)C(=O)C1=O` [PIPERACILLIN], the MIC is 96 µg/mL (≈ 185 µM) against Enterobacter cloacae [1]; 192 µg/mL (≈ 371 µM) with Enterobacter cloacae [2]; over 256 µg/mL in the assay on Enterobacter cloacae [3]; 6 µg/mL with Enterobacter cloacae [4]; over 256 µg/mL against Enterobacter cloacae [5]; 192 µg/mL in the assay with Enterobacter cloacae [6]. The MIC against Enterobacter cloacae [7] and in the assay on Enterobacter cloacae [8] was over 256 µg/mL each time.

In the case of `CO[C@@]1(NC(=O)Cc2cccs2)C(=O)N2C(C(=O)O)=C(COC(N)=O)CS[C@@H]21` [CEFOXITIN], the MIC against Enterobacter cloacae [1], against Enterobacter cloacae [2], with Enterobacter cloacae [3], in the assay with Enterobacter cloacae [4], in the assay on Enterobacter cloacae [5] and in the assay with Enterobacter cloacae [6] was over 256 µg/mL throughout. Besides, the MIC with Enterobacter cloacae [7] and in the assay with Enterobacter cloacae [8] was over 256 µg/mL throughout.

As for `CC(=O)NC[C@H]1CN(c2ccc(N3CCOCC3)c(F)c2)C(=O)O1` [LINEZOLID], the MIC is over 256 µg/mL in the assay on Enterobacter cloacae [1]; 8 µg/mL (≈ 23.7 µM) with Enterobacter cloacae [2]; over 256 µg/mL against Enterobacter cloacae [3]; 0.5 µg/mL with Enterobacter cloacae [4]; 4 µg/mL (≈ 11.9 µM) in the assay on Enterobacter cloacae [5]; 4 µg/mL in the assay with Enterobacter cloacae [6]. In addition, the MIC in the assay on Enterobacter cloacae [7] and in the assay on Enterobacter cloacae [8] was over 256 µg/mL each time.

Take `CC[C@H]1OC(=O)[C@H](C)[C@@H](O[C@H]2C[C@@](C)(OC)[C@@H](O)[C@H](C)O2)[C@H](C)[C@@H](O[C@@H]2O[C@H](C)C[C@H](N(C)C)[C@H]2O)[C@](C)(O)C[C@@H](C)C(=O)[C@H](C)[C@@H](O)[C@]1(C)O` [ERYTHROMYCIN]: the MIC in the assay on Enterobacter cloacae [1] is 48 µg/mL (≈ 65.4 µM); against Enterobacter cloacae [2] it was 12 µg/mL (≈ 16.4 µM); with Enterobacter cloacae [3], over 256 µg/mL; in the assay with Enterobacter cloacae [4], 0.094 µg/mL; against Enterobacter cloacae [5], 16 µg/mL (≈ 21.8 µM); with Enterobacter cloacae [6], 1 µg/mL. Further, the MIC in the assay with Enterobacter cloacae [7] is 128 µg/mL (≈ 174 µM); against Enterobacter cloacae [8], over 256 µg/mL.

As for `NC[C@H]1O[C@H](O[C@H]2[C@H](O)[C@@H](O[C@H]3O[C@H](CO)[C@@H](O)[C@H](N)[C@H]3O)[C@H](N)C[C@@H]2N)[C@H](N)C[C@@H]1O` [TOBRAMYCIN], the MIC with Enterobacter cloacae [1] was determined as 0.38 µg/mL (≈ 0.813 µM); in the assay on Enterobacter cloacae [2], 0.125 µg/mL (≈ 0.267 µM); in the assay on Enterobacter cloacae [3] it was 1.5 µg/mL (≈ 3.21 µM); in the assay on Enterobacter cloacae [4], 0.047 µg/mL; with Enterobacter cloacae [5], 0.25 µg/mL (≈ 0.535 µM); in the assay on Enterobacter cloacae [6] it was 0.5 µg/mL. Also, the MIC with Enterobacter cloacae [7] was 1.5 µg/mL (≈ 3.21 µM); in the assay with Enterobacter cloacae [8], 1 µg/mL (≈ 2.14 µM).

Consider `NCC[C@H](O)C(=O)N[C@@H]1C[C@H](N)[C@@H](O[C@H]2O[C@H](CN)[C@@H](O)[C@H](O)[C@H]2O)[C@H](O)[C@H]1O[C@H]1O[C@H](CO)[C@@H](O)[C@H](N)[C@H]1O` [AMIKACIN], for which the MIC is 1 µg/mL (≈ 1.71 µM) with Enterobacter cloacae [1]; 0.5 µg/mL (≈ 0.854 µM) with Enterobacter cloacae [2]; 2 µg/mL (≈ 3.42 µM) against Enterobacter cloacae [3]; 0.125 µg/mL in the assay on Enterobacter cloacae [4]; 0.5 µg/mL (≈ 0.854 µM) with Enterobacter cloacae [5]; 1.5 µg/mL with Enterobacter cloacae [6]. Further, the MIC in the assay on Enterobacter cloacae [7] and in the assay with Enterobacter cloacae [8] was 2 µg/mL (≈ 3.42 µM) throughout.

As to `CC(=O)OCC1=C(C(=O)O)N2C(=O)[C@@H](NC(=O)Cc3cccs3)[C@H]2SC1` [CEPHALOTHIN], the MIC against Enterobacter cloacae [1], with Enterobacter cloacae [2], against Enterobacter cloacae [3], in the assay with Enterobacter cloacae [4], with Enterobacter cloacae [5] and in the assay with Enterobacter cloacae [6] was over 256 µg/mL each time. Besides, the MIC with Enterobacter cloacae [7] and in the assay on Enterobacter cloacae [8] was over 256 µg/mL throughout.

On to `CN(C)c1cc(NC(=O)CNC(C)(C)C)c(O)c2c1C[C@H]1C[C@H]3[C@H](N(C)C)C(O)=C(C(N)=O)C(=O)[C@@]3(O)C(O)=C1C2=O` [TIGECYCLINE], for which the MIC in the assay on Enterobacter cloacae [1] was determined as 0.19 µg/mL (≈ 0.324 µM); against Enterobacter cloacae [2] it was 0.125 µg/mL (≈ 0.213 µM); in the assay on Enterobacter cloacae [3], 0.75 µg/mL (≈ 1.28 µM); with Enterobacter cloacae [4], 0.064 µg/mL; in the assay on Enterobacter cloacae [5], 0.5 µg/mL (≈ 0.854 µM); in the assay on Enterobacter cloacae [6], 0.125 µg/mL. The values for the MIC in the assay on Enterobacter cloacae [7] and in the assay on Enterobacter cloacae [8] were 0.75 µg/mL (≈ 1.28 µM) and 0.38 µg/mL (≈ 0.649 µM), respectively.

In the case of `CCC[C@@H]1C[C@@H](C(=O)N[C@@H]([C@H]2O[C@H](SC)[C@H](O)[C@@H](O)[C@H]2O)[C@H](C)Cl)N(C)C1` [CLINDAMYCIN], the MIC in the assay with Enterobacter cloacae [1] is 32 µg/mL (≈ 75.3 µM); against Enterobacter cloacae [2] it was 2 µg/mL (≈ 4.71 µM); against Enterobacter cloacae [3], over 256 µg/mL; in the assay with Enterobacter cloacae [4], 1 µg/mL; against Enterobacter cloacae [5] it was 4 µg/mL (≈ 9.41 µM); in the assay with Enterobacter cloacae [6], 6 µg/mL. Besides, the MIC against Enterobacter cloacae [7] and with Enterobacter cloacae [8] was over 256 µg/mL in each case.

Take `Cc1onc(-c2ccccc2)c1C(=O)N[C@@H]1C(=O)N2[C@@H]1SC(C)(C)[C@@H]2C(=O)O` [OXACILLIN]: the MIC against Enterobacter cloacae [1] was over 256 µg/mL; in the assay with Enterobacter cloacae [2], 96 µg/mL (≈ 239 µM); against Enterobacter cloacae [3] it was over 256 µg/mL; in the assay on Enterobacter cloacae [4] it was 4 µg/mL; in the assay on Enterobacter cloacae [5], over 256 µg/mL; in the assay on Enterobacter cloacae [6], 48 µg/mL. The MIC against Enterobacter cloacae [7] and against Enterobacter cloacae [8] was over 256 µg/mL each time.

For `CN(C)[C@@H]1C(O)=C(C(N)=O)C(=O)[C@@]2(O)C(O)=C3C(=O)c4c(O)cccc4[C@@](C)(O)[C@H]3C[C@@H]12` [TETRACYCLINE], the MIC in the assay with Enterobacter cloacae [1] is 192 µg/mL (≈ 432 µM); against Enterobacter cloacae [2], 64 µg/mL (≈ 144 µM); against Enterobacter cloacae [3], over 256 µg/mL; in the assay on Enterobacter cloacae [4], 1.5 µg/mL; against Enterobacter cloacae [5], 64 µg/mL (≈ 144 µM); in the assay with Enterobacter cloacae [6], 64 µg/mL. Moreover, the MIC against Enterobacter cloacae [7] and with Enterobacter cloacae [8] was over 256 µg/mL each time.

Regarding `CO/N=C(\C(=O)N[C@@H]1C(=O)N2C(C(=O)O)=C(COC(C)=O)CS[C@H]12)c1csc(N)n1` [CEFOTAXIME], the MIC against Enterobacter cloacae [1] was over 256 µg/mL; in the assay on Enterobacter cloacae [2] it was over 256 µg/mL; against Enterobacter cloacae [3], over 256 µg/mL; with Enterobacter cloacae [4], 8 µg/mL; against Enterobacter cloacae [5], over 256 µg/mL; with Enterobacter cloacae [6] it was over 256 µg/mL. The MIC against Enterobacter cloacae [7] and with Enterobacter cloacae [8] was over 256 µg/mL throughout.

In the case of `O=C(N[C@H](CO)[C@H](O)c1ccc([N+](=O)[O-])cc1)C(Cl)Cl` [CHLORAMPHENICOL], the minimum inhibitory concentration (MIC) is 1 µg/mL (≈ 3.09 µM) against Enterobacter cloacae [1]; 0.5 µg/mL (≈ 1.55 µM) against Enterobacter cloacae [2]; 8 µg/mL (≈ 24.8 µM) with Enterobacter cloacae [3]; 0.047 µg/mL in the assay on Enterobacter cloacae [4]; over 256 µg/mL in the assay with Enterobacter cloacae [5]; 0.25 µg/mL in the assay with Enterobacter cloacae [6]. Further, the MIC is over 256 µg/mL in the assay on Enterobacter cloacae [7] and 8 µg/mL (≈ 24.8 µM) in the assay on Enterobacter cloacae [8].

As to `CC(C)(O/N=C(\C(=O)N[C@@H]1C(=O)N2C(C(=O)[O-])=C(C[n+]3ccccc3)CS[C@H]12)c1csc(N)n1)C(=O)O` [CEFTAZIDIME], the MIC is over 256 µg/mL with Enterobacter cloacae [1]; over 256 µg/mL with Enterobacter cloacae [2]; over 256 µg/mL in the assay with Enterobacter cloacae [3]; 16 µg/mL with Enterobacter cloacae [4]; over 256 µg/mL against Enterobacter cloacae [5]; over 256 µg/mL in the assay on Enterobacter cloacae [6]. The MIC against Enterobacter cloacae [7] and against Enterobacter cloacae [8] was over 256 µg/mL throughout.

On to `CO/N=C(\C(=O)N[C@@H]1C(=O)N2C(C(=O)O)=C(COC(N)=O)CS[C@H]12)c1ccco1` [CEFUROXIME], for which the MIC is over 256 µg/mL in the assay on Enterobacter cloacae [1]; over 256 µg/mL in the assay on Enterobacter cloacae [2]; over 256 µg/mL with Enterobacter cloacae [3]; 48 µg/mL with Enterobacter cloacae [4]; over 256 µg/mL against Enterobacter cloacae [5]; over 256 µg/mL in the assay with Enterobacter cloacae [6]. Further, the MIC against Enterobacter cloacae [7] and with Enterobacter cloacae [8] was over 256 µg/mL in each case.

The MIC is the lowest concentration that inhibits growth of the organism.
